In US7534444B2, “Molecular mimetics of meningococcal B epitopes which elicit functionally active antibodies” (priority 2001, dated 2009):
Ends that are not written are not given here.

B1: rGNA33: recombinant GNA33 of strain 2996, soluble protein without signal and lipid modification sequences (protein)
chain: MKKYLFRAALCGIAAAILAACQSKSIQTFPQPDTSVINGPDRPVGIPDPAGTTVGGGGAVYTVVPHLSLPHWAAQDFAKSLQSFRLGCANLKNRQGWQDVCAQAFQTPVHSVQAKQFFERYFTPWQVAGNGSLAGTVTGYYEPVLKGDDRRTAQARFPIYGIPDDFISVPLPAGLRSGKALVRIRQTGKNSGTIDNTGGTHTADLSQFPITARTTAIKGRFEGSRFLPYHTRNQINGGALDGKAPILGYAEDPVELFFMHIQGSGRLKTPSGKYIRIGYADKNEHPYVSIGRYMADKGYLKLGQTSMQGIKAYMQQNPQRLAEVLGQNPSYIFFRELTGSSNDGPVGALGTPLMGEYAGAVDRHYITLGAPLFVATAHPVTRKALNRLIMAQDTGSAIKGAVRVDYFWGYGDEAGELAGKQKTTGYVWQLLPNGMKPEYRP

Legend:
[1] = system: anti-GNA33 mAb 25; assay: Peptide binding assay with cellulose-bound spot-synthesised peptides; parameters: species or system mouse; conditions: for Dye Units (binding of anti-GNA33 mAb 25): mAb 25 6 μg/ml; for Relative Binding (of anti-GNA33 mAb 25): alanine substitution of PorA loop 4 VR type P1.2-2 10-mer
Method: Peptide spot synthesis was carried out on amino-PEG-cellulose membranes (ABIMED, Langerfeld, Germany) using a model ASP 222 automated spot synthesizer (ABIMED) and diisopropylcarbodiimide (DIC)/N-hydroxybenzotriazole (HOBt) activation (Frank and Overwin, Methods Mol. Biol. (1996) 66:149-169). In situ-prepared 0.2 M HOBt esters of fluorenylmethoxycarbonyl (Fmoc)-amino acid derivatives were used for the coupling reaction. […] After the final cycle, all the peptides were N-terminally acetylated with 2% acetic anhydride. At the end of the synthesis, the side-chain protecting groups were removed using a mixture of trifluoroacetic acid/triisobutylsilane/water/dichloromethane (50/3/2/45).
Cellulose-bound peptides were soaked in ethanol to prevent hydrophobic interactions between the peptides. Non-specific binding was blocked by incubating cellulose sheets overnight at 4° C. with 10 ml of 2% casein in Tris buffered saline (TBS: 50 mM Tris-HCl, 137 mM NaCl, […], pH 7.0), containing 0.05% TWEEN® 20 (T-TBS). The sheets were incubated for 2 hr at 37° C. with the anti-GNA33 mAb 25 (6 μg/ml) or an anti-PorA 1.2 mAb diluted 1:100 in T-TBS blocking buffer. Alkaline phosphatase-conjugated goat anti-mouse IgG (BioRad) was then added at 1:3000 dilution in T-TBS blocking buffer for 1 hr at 37° C. Sheets were washed three times with T-TBS and detection of binding was achieved by incubating the sheets with bromo-4-chloro-3-indolyl-phosphate (BCIP) (Sigma, Steinheim, Germany) and […] in substrate buffer (100 mM Tris, pH 8.9, 100 mM NaCl, 2 mM MgCl2). Quantitative evaluation of the signal was obtained using a Umax Speedy II 2200 optical scanner.

[2] = molecular target: PorA of N. meningitidis strain M5954 (C:2a:P1.2) (Neisseria meningitidis serogroup C strain M5954); assay: cell-based or functional assay
[3] = molecular target: PorA of N. meningitidis strain M5545 (B:NT:P1.5,2) (Neisseria meningitidis serogroup B strain M5545); assay: cell-based or functional assay
[4] = molecular target: PorA of N. meningitidis strain BZ232 (B:NT:P1.2) (Neisseria meningitidis serogroup B strain BZ232); assay: cell-based or functional assay
[5] = molecular target: PorA of N. meningitidis strain 8047 (B:2b:P1.5,2) (Neisseria meningitidis serogroup B strain 8047); assay: cell-based or functional assay
[6] = molecular target: PorA of N. meningitidis strain 2996 (B:2b:P1.5,2) (Neisseria meningitidis serogroup B strain 2996); assay: cell-based or functional assay
[7] = molecular target: PorA of N. meningitidis strain M5682 (B:2a:P1.5,2) (Neisseria meningitidis serogroup B strain M5682); assay: cell-based or functional assay
[8] = molecular target: PorA of N. meningitidis strain M3735 (B:NT:P1.5,2) (Neisseria meningitidis serogroup B strain M3735); assay: cell-based or functional assay
[9] = molecular target: PorA of N. meningitidis strain NMB (B:2b:P1.5,2) (Neisseria meningitidis serogroup B strain NMB); assay: cell-based or functional assay
[10] = molecular target: PorA of N. meningitidis strain M986 (B:2a:P1.5,2) (Neisseria meningitidis serogroup B strain M986); assay: cell-based or functional assay
[11] = system: encapsulated MenB strain 2996; conditions: mice immunized; measured against encapsulated MenB strain 2996; cited from earlier work
[12] = system: P1.2 epitope of PorA loop 4; assay: Immunization of CD1 mice with rGNA33 in Freund's adjuvant; assay type: in vivo; conditions: recombinant protein simply mixed with Freund's adjuvant, without renaturation
Method: In order to prepare antisera against GNA33, 20 μg of purified HT-GNA33 or untagged rGNA33 was used to immunize six-week old CD1 female mice (four to ten mice per group). The mice were obtained from Charles River (Italia S.P.A., Calco, Italy, or Hollister, Calif.). The recombinant protein was given i.p, together with complete Freund's adjuvant (CFA) for the first dose and incomplete Freund's adjuvant (IFA) for the second (day 21) and third (day 35) booster doses. Blood samples were taken on days 34 and 49.

[13] = overlapping decapeptides from GNA33
[14] = overlapping decapeptides from loop 4 of PorA P1.2 (strain 2996)

Row | Molecule | Dye Units (binding of anti-GNA33 mAb 25) [1, 13] [Dye Units] | Dye Units (binding of anti-GNA33 mAb 25) [1, 14] [Dye Units] | other results
1 | AFQTPVHSFQ | 24 |  | 
2 | AHFVQQTPQS (Ac-AHFVQQTPQS) |  | 14 | 
3 | AQAFQTPVHS | 30 |  | 
4 | DVSAQAFQTP | 23 |  | 
5 | FQTPVHSFQA | 22 |  | 
6 | FVQQTPQSQP (Ac-FVQQTPQSQP) |  | 9 | 
7 | HFVQQTPQSQ (Ac-HFVQQTPQSQ) |  | 15 | 
8 | PAA FVQ QTP Q (Ac-PAAFVQQTPQ) |  |  | Relative Binding (of anti-GNA33 mAb 25) [1]: 8
9 | PAH AVQ QTP Q (Ac-PAHAVQQTPQ) |  |  | Relative Binding (of anti-GNA33 mAb 25) [1]: 1
10 | PAH FAQ QTP Q (Ac-PAHFAQQTPQ) |  |  | Relative Binding (of anti-GNA33 mAb 25) [1]: 4
11 | PAH FVA QTP Q (Ac-PAHFVAQTPQ) |  |  | Relative Binding (of anti-GNA33 mAb 25) [1]: 2
12 | PAH FVQ ATP Q (Ac-PAHFVQATPQ) |  |  | Relative Binding (of anti-GNA33 mAb 25) [1]: 0
13 | PAH FVQ QAP Q (Ac-PAHFVQQAPQ) |  |  | Relative Binding (of anti-GNA33 mAb 25) [1]: 0
14 | PAH FVQ QTA Q (Ac-PAHFVQQTAQ) |  |  | Relative Binding (of anti-GNA33 mAb 25) [1]: 0
15 | PAHFVQQTPQ (Ac-PAHFVQQTPQ) |  | 10 | 
16 | PAK FVQ QTP A (PAHFVQQTPA) |  |  | Relative Binding (of anti-GNA33 mAb 25) [1]: 2

Row | Molecule | Dye Units (binding of anti-GNA33 mAb 25) [1, 13] [Dye Units] | Dye Units (binding of anti-GNA33 mAb 25) [1, 14] [Dye Units] | other results
17 | PGH FVQ QTP Q (Ac-PGHFVQQTPQ) |  |  | Relative Binding (of anti-GNA33 mAb 25) [1]: 8
18 | QAFQTPVHSF | 30 |  | 
19 | QDVSAQAFQT | 0 |  | 
20 | QQTPQSQPTL (Ac-QQTPQSQPTL) |  | 0 | 
21 | QTPQSQPTLV (Ac-QTPQSQPTLV) |  | 2 | 
22 | QTPVHSFQAK | 19 |  | 
23 | SAQAFQTPVH | 29 |  | 
24 | TPAHFVQQTP |  | 8 | 
25 | TPQSQPTVP |  | 2 | 
26 | TPVHSFQAKQ | 2 |  | 
27 | VQQTPQSQPT (Ac-VQQTPQSQPT) |  | 4 | 
28 | VSAQAFQTPV | 27 |  | 
29 | YTPAHFVQQT (Ac-YTPAHFVQQT) |  | 0 | 
30 | meningococcal Por A P1.2-specific subtyping mAb (MN16C13F4, subclass IgG2a) (antibody) |  |  | BC50, human complement [2]: < 0.5 µg/mL; BC50, human complement [3]: < 0.5 µg/mL; BC50, human complement [4]: < 0.5 µg/mL; BC50, human complement [5]: < 0.5 µg/mL; BC50, human complement [6]: < 0.5 µg/mL; BC50, human complement [7]: < 0.5 µg/mL; BC50, human complement [8]: < 0.5 µg/mL; BC50, human complement [9]: < 0.5 µg/mL; BC50, human complement [10]: < 0.5 µg/mL
31 | B1 |  |  | serum bactericidal antibody titers [11]: high; antibody elicited by immunization [12]: elicited bactericidal antibody
